Series [1] deals with T1, MIF (Homo sapiens, UniProt P14174).
T1 sequence (P14174 2-115 limits assumed): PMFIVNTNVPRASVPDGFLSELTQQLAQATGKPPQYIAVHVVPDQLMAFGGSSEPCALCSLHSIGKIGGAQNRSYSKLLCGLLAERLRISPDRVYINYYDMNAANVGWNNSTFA
Put plainly: MIF dopachrome tautomerase activity inhibition. The format is biochemical. Further details: 1 μL of MIF solution (800-900 ng/mL). How it is done: MIF tautomerase activity was measured by UV-Visible recording spectrophotometry (SHIMADZU, UV 1600U). A fresh stock solution of L-dopachrome methyl ester was prepared at 2.4 mM through oxidation of L3,4-dihydroxyphenylalanine methyl ester with sodium periodate. 1 μL of MIF solution (800-900 ng/mL) and 1 μL of a DMSO solution with various concentrations of the enzymatic inhibitor were added into a plastic cuvette (10 mm, 1.5 mL) containing 0.7 mL assay buffer (1× potassium phosphate, pH 7.2). The L-dopachrome methyl ester solution (0.3 mL) was added to the assay buffer mixture.

The test system of series [2] is TNF release by LPS-stimulated human macrophages. The series is described as follows: TNF release from LPS-stimulated macrophages. The note with it: FIG. 4. The series is classed as cell-based. As to the method:
(§1) TNF-α production was then measured. The data shown are mean ±SD of triplicate wells in experiments that were repeated twice.
It has been shown that the macrophage is an abundant source of MIF (Calandra et al., 1994), which is released after LPS stimulation. This led to an examination of the autocrine and paracrine activity of secreted MIF in vitro.

The nature of series [3]: preliminary acute toxicity screening. The series is classed as in vivo. From the text: Design of Cyc-Oxi-11. ISO-1, the pharmacological inhibitor of MIF, neutralizes exogenous and endogenous MIF in in vitro and in vivo models. This indicates the successful application of chemical approaches to antagonize MIF biological activities. Although ISO-1 has significant anti-inflammatory activity, development of better inhibitors was desired. […] Representative structures of the novel oxime scaffold are presented in Table I, with their IC50 of inhibiting MIF dopachrome tautomerase activity.

Series [4] in a line: antibacterial effect. The note with it: preliminary studies.
Series [5] has as its system CLP sepsis. The series is described as follows: cecal ligation and puncture (CLP) sepsis survival. The format is in vivo. As to conditions: mice, intraperitoneal, first injection 24 hours after CLP, further injections day 2 and 3, FIG. 6. As to the method: FIG. 6 is a graph showing that Cyc-Oxi-II is protective even when given 24 h after the induction of sepsis.
An additional two injections were given, on day 2 and day 3. Thirteen mice were tested.

Series [6] concerns the target T1, MIF. The series is described as follows: MIF glucocorticoid-regulating (proinflammatory) activity in LPS-treated macrophages, TNF-α production. The series is classed as cell-based. Further details: dexamethasone plus MIF (3 nM purified native MIF); host or cells: added to monocyte-derived macrophages from human peripheral blood. How it is done:
as §1

The subject of series [7] is TNF release by LPS-treated macrophages. The note with it: in vitro; cited from earlier work.
For series [8], the system named is endotoxemia and sepsis. The note with it: intraperitoneal, 40 mg/kg; Al-Abed et al., 2005; cited from earlier work.
Setting [9] is: Table 2, additional MIF inhibitors, read-out: IC50 MIF inhibitory activity in vitro.
The mark [10] stands for this setting: Table 1, left column pair, read-out: IC50 inhibition of MIF tautomerase activity.

Entries after “also recorded” stand apart in the source; their conditions may differ. Read-outs that look alike come from different tables or passages of the source.

As to `CC(C)(C)OC(=O)NOC(=O)c1ccccc1` [BKII-98], the IC50 in series [1] (setting [9]) is 230 nM.
Regarding `O=C(O/N=C/c1ccc(O)cc1)C1CCCC1`, the IC50 in series [1] (setting [10]) is 4800 nM.
Turning to `CC(C)(C)OC(=O)NOC(=O)c1ccc(I)cc1` [BKIII-9Y], in series [1] (setting [9]), the IC50 amounted to 1700 nM.
The same measure, in the same setting: the figure for `CC(C)(C)OC(=O)NOC(=O)c1ccc(OC(=O)c2ccc(O)cc2)cc1` [BKIII-6Y] is 50000 nM.
Turning to `COc1ccc(OC(=O)O/N=C/c2ccc(O)c(F)c2)cc1` [Compound 5, (E)-3-fluoro-4-hydroxybenzaldehyde O-4′-methoxyphenyl carbonyloxime], the “improvement of inhibition of dopachrome tautomerase activity over parent compound” value in series [1] (mono-fluorinated analogue versus parent) is 63%.
Turning to `CC(C)(C)OC(=O)NOC(=O)c1ccc(F)cc1` [BKIII-8W], in series [1] (setting [9]), the IC50 is 270 nM.
On to `COc1ccc(C(=O)ONC(=O)OC(C)(C)C)cc1` [BKII-99], for which the IC50 in series [1] (setting [9]) amounted to 1200 nM.
The same measure, in the same setting: the figure for `CC(C)(C)OC(=O)NOC(=O)C1CCCC1` [BKII-93] is 700 nM; for `CC(C)(C)OC(=O)NOC(=O)c1ccc(Cl)cc1` [BKIII-8Y] it is 870 nM; for `CC(C)(C)OC(=O)NOC(=O)c1c(F)c(F)c(F)c(F)c1F` [BKIII-6W] it is 118000 nM.
With `CC(C)(C)OC(=O)NOC(=O)C1CCC1` [BKII-92], the half-maximal inhibitory concentration (IC50) in series [1] (setting [9]) was determined as 370 nM.
For the compound `O=C(O/N=C/c1ccc(O)cc1)C1CCCCC1` [Cyc-Oxi-11, (E)-4-hydroxybenzaldehyde O-cyclohexanecarbonyloxime], in series [2], the “inhibition of TNF release” value is “inhibits TNF release in vitro; also recorded: in a dose-dependent manner, inhibits TNF release; also recorded: inhibits MIF induction of TNF release”. For the same compound, the “acute toxicity, intraperitoneal injection” value in series [3] (doses up to 100 mg/Kg) is on record as “no evidence of toxicity”. Also, the “toxicity at high doses” value in series [3] (high doses, both in vitro and in vivo) is “lacks obvious toxicity”. The antibacterial effect entry in series [4] is reported as “negative”. Besides, the results for the “deaths / protection after CLP” value in series [5] and in series [5] (listed as Cyc-Oxi-II) were “considerably reduced the deaths caused by CLP” and “protective”, respectively. The “potency versus ISO-1 in MIF tautomerase inhibition” value in series [1] (relative to ISO-1) was 30 fold. Besides, the “inhibition of MIF-dependent interference with glucocorticoids” value in series [6] (LPS-stimulated human macrophages, FIG. 3) was “significantly inhibited; also recorded: suppresses the ability of MIF to regulate glucocorticoids”. Further, the “potency versus ISO-1 as inhibitor of MIF proinflammatory activity in vitro” value in series [6] (relative to ISO-1) came to 30 fold.
In the case of `O=C(O/N=C/c1ccc(O)cc1)C1CCC1`, the IC50 in series [1] (setting [10]) came out at 12000 nM.
For `CC(C)(C)OC(=O)NOC(=O)C1CC1` [BKII-91], the IC50 in series [1] (setting [9]) came out at 1900 nM.
Turning to `COC(=O)C[C@@H]1CC(c2ccc(O)cc2)=NO1` (racemic) [ISO-1, (S,R)-3-(4-hydroxyphenyl)-4,5-dihydro-5-isoxazole acetic acid methyl ester], the “inhibition of TNF release” value in series [7] is recorded as 60%. For the same compound, in series [8], the survival rate result is reported as “increased the survival rate”.
Regarding `COc1ccc(C(=O)ON=Cc2ccc(O)cc2)cc1` [Compound 4], the IC50 in series [1] (read-out: IC50 of MIF dopachrome tautomerase activity) was 1100 nM.
In the case of `CC(C)(C)OC(=O)NOC(=O)c1ccc(C(F)(F)F)cc1` [BKIII-9W], the IC50 in series [1] (setting [9]) came out at 69000 nM.
On the same count and under the same terms, the figure for `CC(C)(C)OC(=O)NOC(=O)C1CCCCC1` [BKII-85] is 19500 nM.
`CC(C)(C)OC(=O)NOC(=O)c1ccc(Br)cc1` [BKIII-11Y]: the IC50 in series [1] (setting [9]) was found to be 1300 nM.
The same measure, in the same setting: the value for `CC(C)(C)OC(=O)NNC(=O)C1CCCCC1` [BKII-90] was 60000 nM.

The IC50 is the midpoint of a concentration-inhibition curve.

The record behind these values is patent US20090318509A1, “Oxime Derivatives as Inhibitors of Macrophage Migration Inhibitory Factor” (priority 2006, published 2009).
